Source: the NIST ThermoML archive (doi:10.1016/j.jct.2017.01.016)
Numbers after ± are expanded uncertainties.

Assay: xn = mol fraction of the nth substance listed
Details: 101 kPa, Liquid; for viscosity: Capillary tube (Ostwald / Ubbelohde) method; for speed of sound: Frequency=3 MHz, Linear variable-path acoustic interferometer

Cc1ccccc1C [1,2-dimethylbenzene] + C1COCCO1
Details	speed of sound, 308.15 K [m/s]	speed of sound, 313.15 K [m/s]	speed of sound, 318.15 K [m/s]	viscosity, 308.15 K [mPa·s]	viscosity, 313.15 K [mPa·s]	viscosity, 318.15 K [mPa·s]
x2 = 0	1313.3 ± 1.7	1298.5 ± 1.6	1285.2 ± 1.6	0.669 ± 0.014	0.6315 ± 0.013	0.5972 ± 0.013
x2 = 0.0672	1306.3 ± 1.7	1291 ± 1.6	1277.2 ± 1.6	0.6862 ± 0.014	0.647 ± 0.014	0.6114 ± 0.013
x2 = 0.1391	1299.9 ± 1.6	1284 ± 1.6	1269.7 ± 1.6	0.7045 ± 0.015	0.6637 ± 0.014	0.6267 ± 0.013
x2 = 0.2103	1293.9 ± 1.6	1277.8 ± 1.6	1263 ± 1.6	0.724 ± 0.015	0.6813 ± 0.014	0.6427 ± 0.013
x2 = 0.2853	1288.5 ± 1.6	1272.1 ± 1.6	1256.9 ± 1.6	0.746 ± 0.016	0.7012 ± 0.015	0.661 ± 0.014
x2 = 0.3543	1284.3 ± 1.6	1267.6 ± 1.6	1252.1 ± 1.6	0.7675 ± 0.016	0.7205 ± 0.015	0.6786 ± 0.014
x2 = 0.4293	1280.4 ± 1.6	1263.5 ± 1.6	1247.7 ± 1.6	0.792 ± 0.017	0.7428 ± 0.015	0.699 ± 0.015
x2 = 0.5092	1277.8 ± 1.6	1260.5 ± 1.6	1244.1 ± 1.6	0.8194 ± 0.017	0.7677 ± 0.016	0.7218 ± 0.015
x2 = 0.581	1276.7 ± 1.6	1259 ± 1.6	1242.1 ± 1.6	0.8452 ± 0.018	0.7912 ± 0.017	0.743 ± 0.015
x2 = 0.6518	1276.8 ± 1.6	1258.6 ± 1.6	1241.3 ± 1.6	0.8715 ± 0.018	0.8152 ± 0.017	0.7649 ± 0.016
x2 = 0.7248	1278.4 ± 1.6	1259.6 ± 1.6	1241.7 ± 1.6	0.8997 ± 0.019	0.8408 ± 0.017	0.7884 ± 0.017
x2 = 0.7888	1281.2 ± 1.6	1262 ± 1.6	1243.4 ± 1.6	0.9256 ± 0.019	0.8642 ± 0.018	0.8098 ± 0.017
x2 = 0.8595	1285.9 ± 1.6	1266 ± 1.6	1246.6 ± 1.6	0.9546 ± 0.02	0.8906 ± 0.019	0.834 ± 0.017
x2 = 0.9298	1292.5 ± 1.6	1271.8 ± 1.6	1251.6 ± 1.6	0.9846 ± 0.021	0.9176 ± 0.019	0.859 ± 0.018
